“And” between values parts separate entries of the source, which are not always exact repeats. Equal values may be shown once. Read-outs that look alike come from different tables or passages of the source.
Key:
[1] = target: T1, GFP-tagged METTL10 protein (Homo sapiens, UniProt Q5JPI9); assay: Microscale thermophoresis (MST); assay type: binding; conditions: lysate of HEK293T cells expressing GFP-METTL10, read-out: Dissociation constant (KD)
T1 construct: host or cells: HEK293T
Procedure: Microscale thermophoresis (MST) assays were conducted following the protocol.^[ [49] ^] Briefly, HEK293T cells were transfected with either the pEGFP‐N1‐METTL10 plasmid or the control pEGFP‐N1‐Vector plasmid for 24 h. Subsequently, protein lysates were obtained through ultrasonic disruption at 4 °C. Aliquots of the lysate were then incubated with serially diluted ligands at 37 °C for 30 min. Fluorescence signals were measured, and dissociation constants (Kd) were determined using the NanoTemper Monolith Pico.

[2] = Plasma pharmacokinetics after IV and PO administration; assay type: in vivo, male Sprague–Dawley rats
Procedure: LZQ‐02‐023‐1 was administered to male Sprague–Dawley (SD) rats (n = 3 per group) via intravenous injection at a dose of 1 mg/kg or oral gavage at a dose of 10 mg/kg. Blood samples were collected at predetermined time points, and plasma concentrations of LZQ‐02‐023‐1 were determined using a validated LC‐MS/MS method. Briefly, working solutions of the analyte were prepared by diluting stock solutions with 50% acetonitrile in water to achieve serial concentrations (10, 20, 50, 100, 200, 500, 1000, 5000, and 10 000 ng/mL). Calibration standards were prepared by spiking 5 µL of working solution into 50 µL of blank SD rat plasma, resulting in final concentrations of 1, 2, 5, 10, 20, 50, 100, 500, and 1000 ng/mL in a total volume of 55 µL. Quality control (QC) samples were independently prepared at four concentrations (2, 5, 50, and 800 ng/mL) using blank SD rat plasma, following the same procedure as for the calibration standards. On the day of analysis, 55 µL of each calibration standard, QC sample, or unknown sample (prepared by mixing 50 µL of SD rat plasma with 5 µL of blank solution) was added to 200 µL of acetonitrile:methanol (1:1, v/v) containing an internal standard (IS) mixture for protein precipitation. The samples were vortexed for 30 s, centrifuged at 4000 rpm for 15 min at 4 °C, and the resulting supernatant was diluted threefold with water. A 10 µL aliquot of the diluted supernatant was injected into an AB Sciex Triple Quad 5500 LC‐MS/MS system for quantitative analysis. Pharmacokinetic parameters, including the maximum plasma concentration (Cmax), time to reach Cmax (Tmax), elimination half‐life (t1⁄2), area under the plasma concentration‐time curve (AUC0–t and AUC0–∞), clearance (CL), and volume of distribution (Vd), were calculated using noncompartmental analysis (NCA) in Phoenix WinNonlin 8.3 (Certara; Table S3, Supporting Information).

[3] = IV 1 mg/kg, individual rats R01-R03, 1 mg/kg
[4] = PO 10 mg/kg, individual rats R04-R06, 10 mg/kg

T1 sequence (Q5JPI9 1-291 isoform Q5JPI9-1): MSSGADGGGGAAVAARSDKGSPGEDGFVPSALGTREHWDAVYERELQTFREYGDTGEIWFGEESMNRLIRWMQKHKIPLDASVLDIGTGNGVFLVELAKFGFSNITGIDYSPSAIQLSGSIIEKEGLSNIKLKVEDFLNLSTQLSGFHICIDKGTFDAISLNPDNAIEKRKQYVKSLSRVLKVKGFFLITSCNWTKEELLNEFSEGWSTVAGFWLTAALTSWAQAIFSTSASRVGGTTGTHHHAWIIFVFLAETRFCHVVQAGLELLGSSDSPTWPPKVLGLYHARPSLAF

Cc1ccc(Nc2ncc3c(n2)N(C)C(=O)N(c2cccc(N)c2)C3)cn1 [LZQ-02-023-01, Three‐(3‐aminophenyl)‐1‐methyl‐7‐((6‐methylpyridin‐3‐yl)amino)‐3,4‐dihydropyrimido [4,5‐d] pyrimidin‐2 (1H)‐one]
Kd [1]: 4.47 µM
AUC_%Extrap_obs, mean ([2]; IV 1 mg/kg): 1.09%
C0, mean ([2]; IV 1 mg/kg): 2250 ng/mL
Vss_obs, mean ([2]; IV 1 mg/kg): 0.660 L/kg
Plasma concentration ([2]; IV 1 mg/kg, 5 min, individual rats R01-R03, 1 mg/kg): 532 ng/mL and 563 ng/mL
Plasma concentration ([2]; IV 1 mg/kg, 0.25 h, individual rats R01-R03, 1 mg/kg): 35.5 ng/mL and 26.8 ng/mL
Plasma concentration ([2]; IV 1 mg/kg, 0.5 h, individual rats R01-R03, 1 mg/kg): 12.4 ng/mL and 16.0 ng/mL
Plasma concentration ([2]; IV 1 mg/kg, 1 h, individual rats R01-R03, 1 mg/kg): 4.29 ng/mL and 4.07 ng/mL
Plasma concentration ([2]; IV 1 mg/kg, 2 h, individual rats R01-R03, 1 mg/kg): 2.11 ng/mL and 1.86 ng/mL
Plasma concentration ([2]; IV 1 mg/kg, 4 h, individual rats R01-R03): BLOQ (BLOQ = Below quantifiable limit of 1 ng/mL.)
Plasma concentration ([2]; IV 1 mg/kg, 8 h, individual rats R01-R03): BLOQ (BLOQ = Below quantifiable limit of 1 ng/mL.)
Plasma concentration ([2]; IV 1 mg/kg, 24 h, individual rats R01-R03): BLOQ (BLOQ = Below quantifiable limit of 1 ng/mL.)
AUCInf [2, 3]: 170 ng·h/mL and 195 ng·h/mL
AUC_%Extrap_obs [2, 3]: 1.46% and 1.11% and 0.712%
AUClast [2, 3]: 169 ng·h/mL and 193 ng·h/mL
C0 [2, 3]: 2058 ng/mL and 2578 ng/mL
Cl_obs [2, 3]: 97.8 mL/min/kg and 85.6 mL/min/kg
MRTInf_obs [2, 3]: 7.2 min and 5.85 min
T1/2 [2, 3]: 37.4 min and 31 min
Vss_obs [2, 3]: 0.772 L/kg and 0.707 L/kg and 0.501 L/kg
AUC_%Extrap_obs, mean ([2]; PO 10 mg/kg): 12.8%
F (bioavailability) ([2]; PO 10 mg/kg vs IV 1 mg/kg, individual rats R04-R06): 2.37% and 1.27%
Plasma concentration ([2]; PO 10 mg/kg, 0.25 h, individual rats R04-R06, 10 mg/kg): 39.0 ng/mL and 24.0 ng/mL and 8.83 ng/mL
Plasma concentration ([2]; PO 10 mg/kg, 0.5 h, individual rats R04-R06, 10 mg/kg): 20.0 ng/mL and 20.1 ng/mL
Plasma concentration ([2]; PO 10 mg/kg, 1 h, individual rats R04-R06, 10 mg/kg): 7.33 ng/mL and 6.63 ng/mL and 3.54 ng/mL
Plasma concentration ([2]; PO 10 mg/kg, 2 h, individual rats R04-R06, 10 mg/kg): 3.36 ng/mL and 12.9 ng/mL and 3.14 ng/mL
Plasma concentration ([2]; PO 10 mg/kg, 4 h, individual rats R04-R06, 10 mg/kg): 2.02 ng/mL and 1.36 ng/mL
Plasma concentration ([2]; PO 10 mg/kg, 8 h, individual rats R04-R06): BLOQ (BLOQ = Below quantifiable limit of 1 ng/mL.)
Plasma concentration ([2]; PO 10 mg/kg, 24 h, individual rats R04-R06): BLOQ (BLOQ = Below quantifiable limit of 1 ng/mL.)
AUCInf [2, 4]: 42.0 ng·h/mL and 22.6 ng·h/mL
AUC_%Extrap_obs [2, 4]: 15.0% and 5.19% and 18.1%
AUClast [2, 4]: 27.6 ng·h/mL and 39.8 ng·h/mL and 18.5 ng·h/mL
Cmax [2, 4]: 24.0 ng/mL and 20.1 ng/mL
MRTInf_obs [2, 4]: 97.2 min and 134 min
T1/2 [2, 4]: 101 min and 44.9 min and 125 min
Tmax [2, 4]: 30 min
concentration at 5 min ([2]; male, Sprague-Dawley, rat, plasma, iv, 1 mg/kg, IV 1 mg/kg, 5 min, individual rats R01-R03, read-out: Plasma concentration): 504 ng/mL
concentration at 5 min ([2]; male, Sprague-Dawley, rat, plasma, iv, 1 mg/kg, IV 1 mg/kg, 5 min, read-out: Plasma concentration, mean): 533 ng/mL
concentration at 0.25 h ([2]; male, Sprague-Dawley, rat, plasma, iv, 1 mg/kg, IV 1 mg/kg, 0.25 h, individual rats R01-R03, read-out: Plasma concentration): 28.6 ng/mL
concentration at 0.25 h ([2]; male, Sprague-Dawley, rat, plasma, iv, 1 mg/kg, IV 1 mg/kg, 0.25 h, read-out: Plasma concentration, mean): 30.3 ng/mL
concentration at 0.5 h ([2]; male, Sprague-Dawley, rat, plasma, iv, 1 mg/kg, IV 1 mg/kg, 0.5 h, individual rats R01-R03, read-out: Plasma concentration): 10.9 ng/mL
concentration at 0.5 h ([2]; male, Sprague-Dawley, rat, plasma, iv, 1 mg/kg, IV 1 mg/kg, 0.5 h, read-out: Plasma concentration, mean): 13.1 ng/mL
concentration at 1 h ([2]; male, Sprague-Dawley, rat, plasma, iv, 1 mg/kg, IV 1 mg/kg, 1 h, individual rats R01-R03, read-out: Plasma concentration): 4.26 ng/mL
concentration at 1 h ([2]; male, Sprague-Dawley, rat, plasma, iv, 1 mg/kg, IV 1 mg/kg, 1 h, read-out: Plasma concentration, mean): 4.21 ng/mL
concentration at 2 h ([2]; male, Sprague-Dawley, rat, plasma, iv, 1 mg/kg, IV 1 mg/kg, 2 h, individual rats R01-R03, read-out: Plasma concentration): 2.35 ng/mL
concentration at 2 h ([2]; male, Sprague-Dawley, rat, plasma, iv, 1 mg/kg, IV 1 mg/kg, 2 h, read-out: Plasma concentration, mean): 2.11 ng/mL
AUC(0-inf) ([2]; male, Sprague-Dawley, rat, plasma, iv, 1 mg/kg, IV 1 mg/kg, individual rats R01-R03, read-out: AUCInf): 168 ng·h/mL
AUC(0-t) ([2]; male, Sprague-Dawley, rat, plasma, iv, 1 mg/kg, IV 1 mg/kg, individual rats R01-R03, read-out: AUClast): 165 ng·h/mL
C0 ([2]; male, Sprague-Dawley, rat, plasma, iv, 1 mg/kg, IV 1 mg/kg, individual rats R01-R03, read-out: C0): 2110 ng/mL
clearance ([2]; male, Sprague-Dawley, rat, plasma, iv, 1 mg/kg, IV 1 mg/kg, individual rats R01-R03, read-out: Cl_obs): 99.3 mL/min/kg
MRT inf ([2]; male, Sprague-Dawley, rat, plasma, iv, 1 mg/kg, IV 1 mg/kg, individual rats R01-R03, read-out: MRTInf_obs): 7.8 min
half-life ([2]; male, Sprague-Dawley, rat, plasma, iv, 1 mg/kg, IV 1 mg/kg, individual rats R01-R03, read-out: T1/2 (converted)): 43.3 min
AUC(0-inf) ([2]; male, Sprague-Dawley, rat, plasma, iv, 1 mg/kg, IV 1 mg/kg, read-out: AUCInf, mean): 178 ng·h/mL
AUC(0-t) ([2]; male, Sprague-Dawley, rat, plasma, iv, 1 mg/kg, IV 1 mg/kg, read-out: AUClast, mean): 176 ng·h/mL
clearance ([2]; male, Sprague-Dawley, rat, plasma, iv, 1 mg/kg, IV 1 mg/kg, read-out: Cl_obs, mean): 94.2 mL/min/kg
MRT inf ([2]; male, Sprague-Dawley, rat, plasma, iv, 1 mg/kg, IV 1 mg/kg, read-out: MRTInf_obs, mean): 6.96 min
half-life ([2]; male, Sprague-Dawley, rat, plasma, iv, 1 mg/kg, IV 1 mg/kg, read-out: T1/2, mean (converted)): 37.2 min
half-life ([2]; male, Sprague-Dawley, rat, plasma, iv, 1 mg/kg, IV administration, male SD rats, read-out: Plasma half-life (converted)): ~37.2 min
bioavailability ([2]; male, Sprague-Dawley, rat, plasma, po, 10 mg/kg, PO 10 mg/kg vs IV 1 mg/kg, individual rats R04-R06, read-out: F (bioavailability)): 1.82%
bioavailability ([2]; male, Sprague-Dawley, rat, plasma, po, 10 mg/kg, PO 10 mg/kg vs IV 1 mg/kg, read-out: F (bioavailability), mean): 1.82%
concentration at 0.25 h ([2]; male, Sprague-Dawley, rat, plasma, po, 10 mg/kg, PO 10 mg/kg, 0.25 h, read-out: Plasma concentration, mean): 23.9 ng/mL
concentration at 0.5 h ([2]; male, Sprague-Dawley, rat, plasma, po, 10 mg/kg, PO 10 mg/kg, 0.5 h, individual rats R04-R06, read-out: Plasma concentration): 14.1 ng/mL
concentration at 0.5 h ([2]; male, Sprague-Dawley, rat, plasma, po, 10 mg/kg, PO 10 mg/kg, 0.5 h, read-out: Plasma concentration, mean): 18.1 ng/mL
concentration at 1 h ([2]; male, Sprague-Dawley, rat, plasma, po, 10 mg/kg, PO 10 mg/kg, 1 h, read-out: Plasma concentration, mean): 5.83 ng/mL
concentration at 2 h ([2]; male, Sprague-Dawley, rat, plasma, po, 10 mg/kg, PO 10 mg/kg, 2 h, read-out: Plasma concentration, mean): 6.5 ng/mL
concentration at 4 h ([2]; male, Sprague-Dawley, rat, plasma, po, 10 mg/kg, PO 10 mg/kg, 4 h, individual rats R04-R06, read-out: Plasma concentration): 1.99 ng/mL
concentration at 4 h ([2]; male, Sprague-Dawley, rat, plasma, po, 10 mg/kg, PO 10 mg/kg, 4 h, read-out: Plasma concentration, mean): 1.79 ng/mL
AUC(0-inf) ([2]; male, Sprague-Dawley, rat, plasma, po, 10 mg/kg, PO 10 mg/kg, individual rats R04-R06, read-out: AUCInf): 32.4 ng·h/mL
Cmax ([2]; male, Sprague-Dawley, rat, plasma, po, 10 mg/kg, PO 10 mg/kg, individual rats R04-R06, read-out: Cmax): 39 ng/mL
MRT inf ([2]; male, Sprague-Dawley, rat, plasma, po, 10 mg/kg, PO 10 mg/kg, individual rats R04-R06, read-out: MRTInf_obs): 111 min
Tmax ([2]; male, Sprague-Dawley, rat, plasma, po, 10 mg/kg, PO 10 mg/kg, individual rats R04-R06, read-out: Tmax): 15 min
AUC(0-inf) ([2]; male, Sprague-Dawley, rat, plasma, po, 10 mg/kg, PO 10 mg/kg, read-out: AUCInf, mean): 32.3 ng·h/mL
AUC(0-t) ([2]; male, Sprague-Dawley, rat, plasma, po, 10 mg/kg, PO 10 mg/kg, read-out: AUClast, mean): 28.6 ng·h/mL
Cmax ([2]; male, Sprague-Dawley, rat, plasma, po, 10 mg/kg, PO 10 mg/kg, read-out: Cmax, mean): 27.7 ng/mL
MRT inf ([2]; male, Sprague-Dawley, rat, plasma, po, 10 mg/kg, PO 10 mg/kg, read-out: MRTInf_obs, mean): 114 min
half-life ([2]; male, Sprague-Dawley, rat, plasma, po, 10 mg/kg, PO 10 mg/kg, read-out: T1/2, mean (converted)): 90.6 min
Tmax ([2]; male, Sprague-Dawley, rat, plasma, po, 10 mg/kg, PO 10 mg/kg, read-out: Tmax, mean): 20 min
half-life ([2]; male, Sprague-Dawley, rat, plasma, po, 10 mg/kg, PO administration, male SD rats, read-out: Plasma half-life (converted)): ~90.6 min
